Source: patent US20260008801A1, “BIO-BASED SURFACTANTS DERIVED FROM CARBOHYDRATES” (COÖPERATIE KONINKLIJKE COSUN U.A., priority 2022, published 2026)

Experiment: Foaming power and stability, Ultra-Turrax, 0.4% aq. surfactant
Assay type: physicochemical
Details: Table E5.2; foam volume after 1 min
Protocol: Foaming power was also tested at room temperature with 5 mL of 0.4% aq. surfactant (20 mg) solution in a 50 mL measuring cylinder. After performing the Ultra-Turrax (a registered trademark for a high-performance dispersing instrument) for 20 seconds (8000 rpm), the initial height of the foam was measured for foam height. (volume in mL). Every time step of, 1, 3, 5, 10, 30, 60 minutes was noted. In addition, after 24 hours the stability was checked. Particularly, foaming power and stability of the surfactants were performed using an IKA Ultra-Turrax T25 with an 18 G dispersing element. At room temperature, an aqueous solution of 5 mL 0.4% surfactant in a 50 mL measuring cylinder (2.20 cm diameter) was mixed with the Ultra-Turrax for 20 seconds at 8000 rpm. The foam height (volume in mL) was denoted for 0, 1, 3, 5, 10, 30, 60 min and 24 hours. In addition, after 24 hours the stability was checked.

Row | Foamability (mL) after (min) 1 | Compound
1 | 4.5 mL | CCCCCCCCCCCCN(C)C[C@H](O)[C@@H](O)[C@@H](O)[C@H](O)C(=O)O [Compound 32, N-methyl-N-dodecyl-D-galacturonic acid amine]

Same assay, conditions: Table E5.2; foam volume after 5 min

Row | Foamability (mL) after (min) 5 | Compound
2 | 5 mL | CCCCCCCCCCCCN(C)C[C@H](O)[C@@H](O)[C@@H](O)[C@H](O)C(=O)O [Compound 32, N-methyl-N-dodecyl-D-galacturonic acid amine]

Same assay, conditions: Table E5.2; foam volume after 10 min

Row | Foamability (mL) after (min) 10 | Compound
3 | 3 mL | CCCCCCCCCCCCN(C)C[C@H](O)[C@@H](O)[C@@H](O)[C@H](O)C(=O)O [Compound 32, N-methyl-N-dodecyl-D-galacturonic acid amine]

Experiment: Foaming abilities, 1% compound solutions shaken by hand
Assay type: physicochemical
Design: key to FOAM: −: no foam formation; +: low foam formation; ++: moderate foam formation; +++: strong foam formation
Details: not given
Protocol: Foaming abilities were evaluated at room temperature by shaking 1% compound solutions (2 ml) of pH 3, 7, and 12 by hand for 10 s. The pH of each solution was assessed with a pH meter at room temperature. […] The foam heights at the initial time were compared to one another after which the foaming abilities were classified according to no foam formation (−), low foam formation (+), moderate foam formation (++), and strong foam formation (+++).

Row | foaming behaviour / foam creation, in words | foam stability compared with SLES | Compound
4 | does not create foam |  | 1-(N-(decanoic acid))-L-arabinonamide [Compound 06]
5 | Foam appears | quite similar | CCCCCCCCNC(=O)[C@H](O)[C@@H](O)[C@@H](O)[C@H](O)C(=O)O [Compound 11]

Same assay, conditions: Table E1

Row | FOAM | Compound
6 | − | CC(C)CNC(=O)[C@H](O)[C@@H](O)[C@@H](O)CO [Compound 05, 1-(N-isobutyl)-L-arabinonamide]

Same assay, conditions: Table E2

Row | FOAM | Compound
7 | − | CCCCNC(=O)[C@H](O)[C@@H](O)[C@@H](O)[C@H](O)C(=O)O [Compound 09]
8 | − | CCCCCCNC(=O)[C@H](O)[C@@H](O)[C@@H](O)[C@H](O)C(=O)O [Compound 10]
9 | ++ | CCCCCCCCNC(=O)[C@H](O)[C@@H](O)[C@@H](O)[C@H](O)C(=O)O [Compound 11]

Same assay, conditions: Table E5; pH not given

Row | FOAM | Compound
10 | +++ | CCCCCCCCCCCCN(C)C[C@H](O)[C@@H](O)[C@@H](O)[C@H](O)C(=O)O [Compound 32, N-methyl-N-dodecyl-D-galacturonic acid amine]

Same assay, conditions: whole pH range

Row | stability in foam | Compound
11 | enormous stability | CCCCCCCCCCCCN(C)C[C@H](O)[C@@H](O)[C@@H](O)[C@H](O)C(=O)O [Compound 32, N-methyl-N-dodecyl-D-galacturonic acid amine]

Experiment: Surface tension measurements, Wilhelmy plate (surface tension, CMC)
Assay type: physicochemical
Details: not given
Protocol: Surface tension measurements were performed with a Biolin Scientific Sigma701 automatic tension meter equipped with a Wilhelmy plate made of platinum (±0.5 mN/m). […] The number of experimental points is related to the compound's/surfactant's solubility and available quantity. All compound/surfactant solutions were allowed to stand 12 h before being measured. The platinum plate was thoroughly cleaned with demi water and flame-dried before each measurement. The CMC of each compound/surfactant was determined at the minimum of a breakpoint of a conventional plot of surface tension versus compound/surfactant concentration. DCMC was obtained by acquiring the surface tension at the CMC. The pC20 value was determined by taking the minus log of the concentration compound/surfactant at a surface tension of 52 mN/m.

Row | SURFACE TENSION | concentration at which the surface tension is reached | Compound
12 | 26 mN/m | 0.29% | CCCCCCCCNC(=O)[C@H](O)[C@@H](O)[C@@H](O)[C@H](O)C(=O)O [Compound 11]
13 | 33.9 mN/m |  | CCCCCCCCCCCCN(C)C[C@H](O)[C@@H](O)[C@@H](O)[C@H](O)C(=O)O [Compound 32, N-methyl-N-dodecyl-D-galacturonic acid amine]

Same assay, conditions: Table E2

Row | CMC (%) | Compound
14 | 0.17% | CCCCCCCCNC(=O)[C@H](O)[C@@H](O)[C@@H](O)[C@H](O)C(=O)O [Compound 11]

Same assay, conditions: Table E2; room temperature, pH 7

Row | SURFACE TENSION | Compound
15 | 50.78 mN/m | CCCCNC(=O)[C@H](O)[C@@H](O)[C@@H](O)[C@H](O)C(=O)O [Compound 09]
16 | 49.43 mN/m | CCCCCCNC(=O)[C@H](O)[C@@H](O)[C@@H](O)[C@H](O)C(=O)O [Compound 10]
17 | 26.0 mN/m | CCCCCCCCNC(=O)[C@H](O)[C@@H](O)[C@@H](O)[C@H](O)C(=O)O [Compound 11]

Same assay, conditions: Table E5

Row | CMC (%) | Compound
18 | 0.1% | CCCCCCCCCCCCN(C)C[C@H](O)[C@@H](O)[C@@H](O)[C@H](O)C(=O)O [Compound 32, N-methyl-N-dodecyl-D-galacturonic acid amine]

Same assay, conditions: Table E5; room temperature, pH 7

Row | SURFACE TENSION | Compound
19 | 33.9 mN/m | CCCCCCCCCCCCN(C)C[C@H](O)[C@@H](O)[C@@H](O)[C@H](O)C(=O)O [Compound 32, N-methyl-N-dodecyl-D-galacturonic acid amine]

Same assay, conditions: Table E5.2

Row | CMC (%) | Surface tension (nM/m) | Compound
20 | 0.1% | 33.9 mN/m | CCCCCCCCCCCCN(C)C[C@H](O)[C@@H](O)[C@@H](O)[C@H](O)C(=O)O [Compound 32, N-methyl-N-dodecyl-D-galacturonic acid amine]

Same assay, conditions: maximal concentration in water; means no micelles were formed

Row | Compound | stable surface tension value at maximal concentration (micelle formation)
21 | CC(C)CNC(=O)[C@H](O)[C@@H](O)[C@@H](O)CO [Compound 05, 1-(N-isobutyl)-L-arabinonamide] | do not reach a stable surface tension value

Same assay, conditions: running text b302

Row | critical micelle concentration (CMC) | Compound
22 | 0.01% | CCCCCCCCCCCCN(C)C[C@H](O)[C@@H](O)[C@@H](O)[C@H](O)C(=O)O [Compound 32, N-methyl-N-dodecyl-D-galacturonic acid amine]

Experiment: Solubility in water (excess of compound in 4 ml demi water)
Assay type: physicochemical
Details: not given
Protocol: Solubility is preferably solubility in aqueous solution, more preferably solubility in water, most preferably solubility in demineralised water. A skilled person knows how to assess such solubility.
Solubility in water was determined by preparing mixtures of an excess of compound dispersed in 4 ml demi water using a vortex at maximum speed for 1 min. […] 1 ml of the mixture was concentrated in vacuo to yield a solid. The mass of the solid was determined in mg to calculate the solubility in percentage by dividing by ten.

Row | Compound | solubility in water, in words | solubility in H2O
23 | CC(C)CNC(=O)[C@H](O)[C@@H](O)[C@@H](O)CO [Compound 05, 1-(N-isobutyl)-L-arabinonamide] | soluble | 
24 | CCCCNC(=O)[C@H](O)[C@@H](O)[C@@H](O)[C@H](O)C(=O)O [Compound 09] |  | 6%
25 | CCCCCCNC(=O)[C@H](O)[C@@H](O)[C@@H](O)[C@H](O)C(=O)O [Compound 10] |  | 2.5%

Other lines, results leading:

Row | solubility in water, in words | solubility in H2O | Compound
26 |  | 2% | CCCCCCCCNC(=O)[C@H](O)[C@@H](O)[C@@H](O)[C@H](O)C(=O)O [Compound 11]
27 |  | 1% | CCCCCCCCCCCCN(C)C[C@H](O)[C@@H](O)[C@@H](O)[C@H](O)C(=O)O [Compound 32, N-methyl-N-dodecyl-D-galacturonic acid amine]

Same assay, conditions: Table E1, arabinonamides

Row | SOLUBILITY (H2O) | Compound
28 | Yes | CC(C)CNC(=O)[C@H](O)[C@@H](O)[C@@H](O)CO [Compound 05, 1-(N-isobutyl)-L-arabinonamide]

Same assay, conditions: Table E2, galactaric acid amides

Row | SOLUBILITY (H2O) | Compound
29 | >6% | CCCCNC(=O)[C@H](O)[C@@H](O)[C@@H](O)[C@H](O)C(=O)O [Compound 09]
30 | ~2.5% | CCCCCCNC(=O)[C@H](O)[C@@H](O)[C@@H](O)[C@H](O)C(=O)O [Compound 10]
31 | ~2.0% | CCCCCCCCNC(=O)[C@H](O)[C@@H](O)[C@@H](O)[C@H](O)C(=O)O [Compound 11]

Same assay, conditions: Table E5

Row | SOLUBILITY (H2O) | Compound
32 | 1% | CCCCCCCCCCCCN(C)C[C@H](O)[C@@H](O)[C@@H](O)[C@H](O)C(=O)O [Compound 32, N-methyl-N-dodecyl-D-galacturonic acid amine]

Same assay, conditions: Table E5.2; water

Row | Solubility | Compound
33 | 1% | CCCCCCCCCCCCN(C)C[C@H](O)[C@@H](O)[C@@H](O)[C@H](O)C(=O)O [Compound 32, N-methyl-N-dodecyl-D-galacturonic acid amine]
